“Also recorded” adds a separate entry of the source.
What was measured:
MCF7 cell line = assay: In vitro cytotoxic activity, MTT method, MCF7; type: cell-based, human; details: for IC50: Homo sapiens, MCF7, MCF7 cell line, MTT
Method: (§1) Cell lines: The in vitro human breast cancerous cell line (MCF7), lung cancerous cell lines (A549) and normal cell lines were purchased from Serum and Vaccine formulation in Cairo-Egypt.
(§2) In vitro cytotoxic activity of all synthesized compounds against two human breast cell line (MCF7) and lung cell lines (A549) was evaluated according to the MTT method. Firstly, Growth the cell line medium in 96 well tissue culture plate was injected with 10^5 cells/mL (100 uL/plate well) of the cell line and incubated at 37 °C for 24 h to develop a monolayer sheet then the formed growth medium was poured from 96 well microtiter plates after the confluent sheet of cells. […] Secondly, add 0.1 mL of each concentration tetrahydroisoquinoline sample to each plate. The plates were incubated at 37 °C. Thirdly MTT solution (5 mg/mL in PBS) is prepared. Add 20 µL of MTT solution to each well plates. And shaking in 150 rpm for 5 min, to mix the MTT into the media. Then incubate at (37 °C, 5% CO2) for 1–5 h. Finally read the optical density at 560 nm and subtract background at 620 nm.
(§3) In this work, doxorubicin was used as a positive control drug for comparison with the synthesized compounds under the same experimental conditions.

[1] = DPPH scavenging antioxidant activity
Method: The antioxidant activity of ten compounds was determined using DPPH [32–34]. A solution 1: prepared by dissolving DPPH (0.002 g) in ethanol (50 mL etnanol). Solution 2: prepared by dissolving different weights 0.05, 0.01 g of each sample in 1 mL of DMSO then take 10 µL of each sample solution with 1 mL ethanol. Then mix 1 mL of solution 1 with 1 mL of solution 2 then vortex the resulting mixture in the dark for about 30 min. The absorbance of the mixture was measured by spectrophotometer at λmax = 517 nm against blank 1 mL absolute ethanol and compared to the ascorbic acid (Vitamin C).
Ten newly synthesized compounds were studied as in vitro antioxidants by measuring of their DPPH scavenging activity which is represented as a percentage % [32]^. Results are represented by mean ± SD of three replicates. […] The higher dose concentration of 0.05 μg/mL represents higher antioxidant activity. […] The high antioxidant activity is referred to the presence of C=O, NH2, and OH groups like ascorbic acid which can be easily oxidized and reduced and can be used as antioxidant drugs. (Fig. 8 and Table 9).

A549 cell line = assay: In vitro cytotoxic activity, MTT method, A549; details: for IC50: Homo sapiens, read-out: IC50 ± SD
Method: as §1, §2, §3

CC(=O)C1C(c2ccc(N(C)C)cc2)c2c(C)nc(SCC(=O)Nc3ccc(Cl)cc3)c(C#N)c2CC1(C)O (stereo not shown) [Compound 7c, 2-[(7-Acetyl-4-cyano-1,6-dimethyl-6-hydroxy-8-(4-N,N-dimethylamino-phenyl)-,5,6,7,8-tetrahydroisoquinolin-3-yl)thio]-N-(4-chlorophenyl)acetamide]
IC50 (MCF7 cell line): 1491 ± 4 nM
Toxicity % (MCF7 cell line; MCF7, 0.0487 µMol): -0.6776%
Viability % (MCF7 cell line; MCF7, 0.0487 µMol): 100.4%
Toxicity % (MCF7 cell line; MCF7, 0.0975 µMol): -0.5335%
Viability % (MCF7 cell line; MCF7, 0.0975 µMol): 100.6%
Viability % (MCF7 cell line; MCF7, 0.195 µMol): 99.47%
Viability % (MCF7 cell line; MCF7, 0.391 µMol): 100.1634%
Toxicity % (MCF7 cell line; MCF7, 0.781 µMol): 8.333%
Viability % (MCF7 cell line; MCF7, 0.781 µMol): 91.67%
Toxicity % (MCF7 cell line; MCF7, 1.562 µMol): 36.68%
Viability % (MCF7 cell line; MCF7, 1.562 µMol): 63.32%
Toxicity % (MCF7 cell line; MCF7, 3.125 µMol): 65.48%
Viability % (MCF7 cell line; MCF7, 3.125 µMol): 34.52%
Toxicity % (MCF7 cell line; MCF7, 6.25 µMol): 86.36%
Viability % (MCF7 cell line; MCF7, 6.25 µMol): 13.64%
Toxicity % (MCF7 cell line; MCF7, 12.5 µMol): 80.15%
Viability % (MCF7 cell line; MCF7, 12.5 µMol): 19.85%
Toxicity % (MCF7 cell line; MCF7, 25 µMol): 96.77%
Viability % (MCF7 cell line; MCF7, 25 µMol): 3.227%
DPPH scavenging, inhibition (%) ([1]; 0.01 µg/mL): 77.90 ± 6.22%
DPPH scavenging, inhibition (%) ([1]; 0.05 µg/mL): 81.39 ± 4.99%
antioxidant activity compared with Vitamin C ([1]; DPPH): higher result than Vitamin C; also recorded: higher antioxidant activity than Vitamin C
Toxicity % (A549 cell line; A549, Conc. 0.04875 µMol): 3.457%
Viability % (A549 cell line; A549, Conc. 0.04875 µMol): 96.54%
Toxicity % (A549 cell line; A549, Conc. 0.0975 µMol): 4.658%
Viability % (A549 cell line; A549, Conc. 0.0975 µMol): 95.3422%
Toxicity % (A549 cell line; A549, Conc. 0.195 µMol): 6.193%
Viability % (A549 cell line; A549, Conc. 0.195 µMol): 93.81%
Toxicity % (A549 cell line; A549, Conc. 0.391 µMol): 33.41%
Viability % (A549 cell line; A549, Conc. 0.391 µMol): 66.59%
Toxicity % (A549 cell line; A549, Conc. 0.781 µMol): 51.48%
Viability % (A549 cell line; A549, Conc. 0.781 µMol): 48.52%
Toxicity % (A549 cell line; A549, Conc. 1.562 µMol): 68.05%
Viability % (A549 cell line; A549, Conc. 1.562 µMol): 31.95%
Toxicity % (A549 cell line; A549, Conc. 3.125 µMol): 77.2%
Viability % (A549 cell line; A549, Conc. 3.125 µMol): 22.8%
Toxicity % (A549 cell line; A549, Conc. 6.25 µMol): 90.57%
Viability % (A549 cell line; A549, Conc. 6.25 µMol): 9.428%
Toxicity % (A549 cell line; A549, Conc. 12.5 µMol): 95.94%
Viability % (A549 cell line; A549, Conc. 12.5 µMol): 4.063%
Toxicity % (A549 cell line; A549, Conc. 25 µMol): 97.44%
Viability % (A549 cell line; A549, Conc. 25 µMol): 2.564%
IC50 (A549 cell line): 496 ± 3 nM

CC(=O)C1C(c2ccc(N(C)C)cc2)c2c(C)nc3sc(C(=O)Nc4ccccc4)c(N)c3c2CC1(C)O (stereo not shown) [Compound 8a, 7-Acetyl-1-amino-5,8-dimethyl-8-hydroxy-6-(4-N,N-dimethylaminophenyl)-N-phenyl-6,7,8,9-tetrahydrothieno[2,3-c]isoquinoline-2-carboxamide]
IC50 (MCF7 cell line): 872 ± 3 nM
Toxicity % (MCF7 cell line; MCF7, Conc. 0.0487 µMol): -1.567%
Viability % (MCF7 cell line; MCF7, Conc. 0.0487 µMol): 101.5%
Toxicity % (MCF7 cell line; MCF7, Conc. 0.0975 µMol): -0.5332%
Viability % (MCF7 cell line; MCF7, Conc. 0.0975 µMol): 100.6%
Toxicity % (MCF7 cell line; MCF7, Conc. 0.195 µMol): -0.4085%
Viability % (MCF7 cell line; MCF7, Conc. 0.195 µMol): 100.4%
Toxicity % (MCF7 cell line; MCF7, Conc. 0.391 µMol): 8.047%
Viability % (MCF7 cell line; MCF7, Conc. 0.391 µMol): 91.95%
Toxicity % (MCF7 cell line; MCF7, Conc. 0.781 µMol): 34.56%
Viability % (MCF7 cell line; MCF7, Conc. 0.781 µMol): 65.44%
Toxicity % (MCF7 cell line; MCF7, Conc. 1.562 µMol): 65.28%
Viability % (MCF7 cell line; MCF7, Conc. 1.562 µMol): 34.72%
Toxicity % (MCF7 cell line; MCF7, Conc. 3.125 µMol): 87.21%
Viability % (MCF7 cell line; MCF7, Conc. 3.125 µMol): 12.79%
Toxicity % (MCF7 cell line; MCF7, Conc. 6.25 µMol): 94.16%
Viability % (MCF7 cell line; MCF7, Conc. 6.25 µMol): 5.842%
Toxicity % (MCF7 cell line; MCF7, Conc. 12.5 µMol): 96.9%
Viability % (MCF7 cell line; MCF7, Conc. 12.5 µMol): 3.105%
Toxicity % (MCF7 cell line; MCF7, Conc. 25 µMol): 97.43%
Viability % (MCF7 cell line; MCF7, Conc. 25 µMol): 2.574%
DPPH scavenging, inhibition (%) ([1]; 0.01 µg/mL): 14.22 ± 1.32%
DPPH scavenging, inhibition (%) ([1]; 0.05 µg/mL): 23.66 ± 2.12%
Toxicity % (A549 cell line; A549, Conc. 0.04875 µMol): 3.135%
Toxicity % (A549 cell line; A549, Conc. 0.0975 µMol): 3.679%
Toxicity % (A549 cell line; A549, Conc. 0.195 µMol): 4.221%
Viability % (A549 cell line; A549, Conc. 0.195 µMol): 95.78%
Toxicity % (A549 cell line; A549, Conc. 0.391 µMol): 10.77%
Viability % (A549 cell line; A549, Conc. 0.391 µMol): 89.23%
Toxicity % (A549 cell line; A549, Conc. 0.781 µMol): 39.61%
Viability % (A549 cell line; A549, Conc. 0.781 µMol): 60.39%
Toxicity % (A549 cell line; A549, Conc. 1.562 µMol): 53.57%
Viability % (A549 cell line; A549, Conc. 1.562 µMol): 46.43%
Toxicity % (A549 cell line; A549, Conc. 3.125 µMol): 74.67%
Viability % (A549 cell line; A549, Conc. 3.125 µMol): 25.33%
Toxicity % (A549 cell line; A549, Conc. 6.25 µMol): 88.24%
Viability % (A549 cell line; A549, Conc. 6.25 µMol): 11.76%
Toxicity % (A549 cell line; A549, Conc. 12.5 µMol): 96.69%
Viability % (A549 cell line; A549, Conc. 12.5 µMol): 3.314%
Toxicity % (A549 cell line; A549, Conc. 25 µMol): 97.95%
Viability % (A549 cell line; A549, Conc. 25 µMol): 2.051%
IC50 (A549 cell line): 1045 ± 6 nM
